From patent publication US20110230472A1, “RING-FUSED AZOLE DERIVATIVE HAVING PI3K-INHIBITING ACTIVITY” (Shionogi & Co., Ltd., priority 2008, published 2011) come the findings set out here.

The target in data set [1] is T1, PI-3 kinase γ (Homo sapiens, UniProt P48736). Nature of the data set: PI3Kγ inhibitory activity (Ki value), HTRF. Type of data set: biochemical. The note with it: Ki=IC50/(1+10 μM ATP/Km). As for the experimental part:
The PI3Kγ inhibitory activity (Ki value) of a compound was evaluated according to the following procedure:
5 μL of a compound solution containing 10% DMSO and 200 μmol/L of a compound was changed to 5 μL of a compound solution containing 10% DMSO and either 200, 64, 20, 6.4, 2, 0.64, or 0.20 μmol/L of the compound (optionally, this is diluted to a lower concentration). Using a method similar to the method for measuring PI3Kγ inhibitory activity, inhibition ratios were measured in the presence of the compound at 50, 16, 5, 1.6, 0.5, 0.16, and 0.05 μmol/L (optionally, a lower concentration). Then an IC50 value was calculated by a logistic approximation method or the linear regression method using two concentrations that across 50% inhibition. Separately, the ATP concentration in the reaction solution (40 μmol/L ATP, 10 mmol/L MgCl2, 5 mmol/L DTT) at the time of the start of a reaction in the absence of the compound was changed to 80, 40, 20, 10, 5, 2.5, 1.25, or 0.625 μmol/L. Then, HTRF ratios were measured by a similar method. The value obtained by subtracting the HTRF ratio at each ATP concentration from the HTRF ratio in the absence of PI-3 kinase γ was defined as the value obtained by multiplying reaction rate (v) at each ATP concentration with a constant. The Michaelis-Menten constant Km was then calculated by the Lineweaver-Burk plot method. The Ki value of a compound was calculated by the following formula.
Ki=IC50 value/(1+10 μM (test ATP concentration)/Km (μM))
For orientation: TR-FRET usually uses a lanthanide donor and a delayed reading to cut background.

Data set [2] relates to AKT phosphorylation in human monocyte-like cell line THP-1. Nature of the data set: AKT phosphorylation inhibitory activity in MCP-1-stimulated THP-1 cells (ELISA). The settings on record: 1 μmol/L solution of each compound, MCP-1 stimulation, read-out: AKT phosphorylation inhibition ratio. Type of data set: cell-based. The protocol: (1) The AKT phosphorylation inhibitory activity of a compound was evaluated according to the following procedure. (2) Human monocyte-like cell line THP-1 was washed with RPMI-1640 media, incubated in the presence of 5% CO2 at 37° C. for 3 hours, washed with Hank's balanced salt solution (HBSS), adjusted to a cell concentration of 6.6×10^6/mL, and then used in an experiment. (3) 30 μL of the cell suspension and 60 μL of each compound solution containing 0.2% DMSO/HBSS were mixed and then preincubated at 37° C. for 5 minutes. 30 μL of HBSS containing 4 μg/mL of MCP-1 was added thereto and then incubated for 30 seconds at 37° C. (4) 30 μl of a cell lysate (20 mmol/L Tris-HCl (pH 7.5), 150 mmol/L NaCl, 1 mmol/L Na2EDTA, 1 mmol/L EGTA, 1% Triton, 2.5 mmol/L sodium pyrophosphate, 1 mmol/L β-glycerophosphate, 1 mmol/L Na3VO4, 1 μg/ml leupeptin, 50 nmol/L APMSF) was added thereto to lyse cells. (5) The amount of AKT phosphorylation in the cell lysate was measured by ELISA method. (6) Anti-phospho-Akt (Ser473) antibodies (clone 193H12, derived from a rabbit) were immobilized onto the solid phase of a micro well plate. 100 μL of the prepared cell lysate was added to the micro well plate, incubated for 2 hours at 37° C., and then washed four times with Phosphate Buffered Saline containing 0.05% Tween-20. (7) An anti-AKT1 antibody (clone 2H10, derived from a mouse) was added thereto, incubated for 1 hour at 37° C., washed similarly, and then reacted with an HRP-labeled anti-mouse IgG antibody. (8) After incubating at 37° C. for 30 minutes and then washing similarly, 100 μL of TMB (3,3′,5,5″-tetramethylbenzidine) was added thereto, followed by reacting at room temperature for 30 minutes. (9) 100 μL of 1 mol/L sulfuric acid was added to quench the color reaction and then the absorbance at 450 nm was measured. (10) A series of diluted cell lysates of a positive control (a sample in the absence of a compound) were used to prepare a calibration curve, the amount of AKT phosphorylation in a sample in the absence of MCP-1 was defined as 0% activity to calculate an inhibition ratio. The measurement was performed for a 1 μmol/L solution of each compound.
A general note: In an ELISA, binding on a coated surface is turned into a signal by an enzyme label.

The target in data set [3] is T1, PI-3 kinase γ. Nature of the data set: PI3Kγ inhibitory activity, PI3-kinase HTRF assay (inhibition ratio). The class given is biochemical. The note with it: 0.5 h; PI3Kγ, compound at 10 μM. The gist of the method: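 PI3Kγ preincubated 10 min with compound and PIP2 substrate (MgCl2, DTT), then ATP added for 30 min at room temperature. PIP3 detected by HTRF (665/620 nm ratio) after 18 h. Inhibition ratio at 50 or 10 μmol/L, normalised to no-compound and no-enzyme controls.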

Data set [4] relates to Salmonella typhimurium TA98 line, TA100 line. Nature of the data set: FAT test (mutagenicity). Details: key: When the mutagenicity is negative, the compound is shown as (−); When positive, the compound is shown as (+). The settings on record: TA98 and TA100 lines; non-metabolism-activation and metabolism-activation conditions. The protocol: 20 μL of Salmonella enterica subsp. typhimurium (Salmonella typhimurium TA98 line, TA100 line) cryopreserved was inoculated to 10 mL of liquid nutrient medium (2.5% Oxoid nutrient broth No. 2) and then precultured at 37° C. for 10 hours with shaking. Regarding TA98 line, after 9 mL of a bacterial suspension was centrifuged (2000×g, 10 minutes) to remove the culture solution, the bacteria was suspended in 9 mL of Micro F buffer solution (K2HPO4: 3.5 g/L, KH2PO4: 1 g/L, (NH4)2SO4: 1 g/L, tri-sodium citric acid dihydrate: 0.25 g/L, MgSO4.7H2O: 0.1 g/L), and then added to 110 mL of Exposure media (Micro F buffer solution containing biotin: 8 μg/mL, histidine: 0.2 μg/mL, glucose: 8 mg/mL). Regarding TA 100 line, 120 mL of Exposure media was added to 3.16 mL of the bacterial suspension to prepare a test bacterial suspension. 12 μL of a solution of a test substance in DMSO (diluted eight times in a common ratio of 2 from the maximum dose of 50 mg/mL); 12 μL of DMSO as a negative control; 50 μg/mL 4-nitroquinoline-1-oxide solution in DMSO for TA98 line or 0.25 μg/mL 2-(2-furyl)-3-(5-nitro-2-furyl)acrylamide solution in DMSO as a positive control for TA 100 line in the case of a non-metabolism-activation condition; 12 μL of 40 μg/mL 2-aminoanthracene solution in DMSO for TA98 line or 20 μg/mL of 2-aminoanthracene solution in DMSO for TA100 line in the case of a metabolism-activation condition; were each mixed with 588 μL of the test bacterial suspension (in the case of a metabolism activation condition, a mixed solution of 498 μL of the test bacterial suspension and 90 μL S9 mix) and then cultured at 37° C. at 90 minutes with shaking. 460 μL of the bacterial suspension to which a test substance was exposed was mixed with 230 μL of Indicator media (a Micro F buffer solution containing 8 μg/mL biotin, 0.2 μg/mL histidine, 8 mg/mL glucose, and 37.5 μg/mL bromocresol purple). 50 μL thereof was dispensed to microplate 48 wells/dose and then statically cultured at 37° C. for 3 days. In a well containing bacteria which obtained proliferation potency by mutation of the amino acid (histidine) synthetase gene, the change of pH caused the color change from purple to yellow. Thus, in 48 wells per dose, the number of the bacteria-proliferation wells in which the color changed to yellow was counted, compared with a group of negative controls, and then evaluated. When the mutagenicity is negative, the compound is shown as (−). When positive, the compound is shown as (+).

Some results are limits rather than exact numbers.

T1 sequence (P48736 whole entry): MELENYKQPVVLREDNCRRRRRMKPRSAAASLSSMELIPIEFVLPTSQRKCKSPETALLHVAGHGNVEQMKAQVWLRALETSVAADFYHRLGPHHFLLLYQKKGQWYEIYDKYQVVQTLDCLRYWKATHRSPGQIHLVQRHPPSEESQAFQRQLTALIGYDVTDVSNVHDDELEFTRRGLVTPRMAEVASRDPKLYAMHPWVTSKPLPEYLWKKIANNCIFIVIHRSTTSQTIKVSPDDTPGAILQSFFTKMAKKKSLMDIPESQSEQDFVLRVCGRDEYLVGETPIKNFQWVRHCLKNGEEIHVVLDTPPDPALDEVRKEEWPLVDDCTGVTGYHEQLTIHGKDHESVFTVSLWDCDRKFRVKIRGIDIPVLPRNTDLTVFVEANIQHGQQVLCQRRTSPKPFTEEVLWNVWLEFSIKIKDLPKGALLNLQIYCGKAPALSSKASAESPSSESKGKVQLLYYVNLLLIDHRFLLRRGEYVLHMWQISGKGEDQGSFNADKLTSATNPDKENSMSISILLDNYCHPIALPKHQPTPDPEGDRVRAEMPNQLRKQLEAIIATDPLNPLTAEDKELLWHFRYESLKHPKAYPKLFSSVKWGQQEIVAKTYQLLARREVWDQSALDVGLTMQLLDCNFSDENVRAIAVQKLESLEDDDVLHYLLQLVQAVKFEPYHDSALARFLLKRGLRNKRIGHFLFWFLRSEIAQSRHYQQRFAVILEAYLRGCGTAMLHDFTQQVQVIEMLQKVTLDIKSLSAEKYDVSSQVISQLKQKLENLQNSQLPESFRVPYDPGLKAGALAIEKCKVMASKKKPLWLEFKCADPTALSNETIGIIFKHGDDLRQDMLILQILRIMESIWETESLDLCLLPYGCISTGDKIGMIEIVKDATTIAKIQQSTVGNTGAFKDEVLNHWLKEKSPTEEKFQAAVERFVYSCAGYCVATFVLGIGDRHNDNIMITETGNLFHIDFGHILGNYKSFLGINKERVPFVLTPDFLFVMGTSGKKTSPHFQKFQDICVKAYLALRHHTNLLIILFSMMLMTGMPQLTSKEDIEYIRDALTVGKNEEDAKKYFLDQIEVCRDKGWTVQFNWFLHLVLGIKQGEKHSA

One may read the Ki as a measure of affinity in units of concentration, obtained from inhibition or displacement. In data set [1], `COc1cc(N2CCc3nc(NC(=O)NCCC(=O)N4CCCCC4)sc3C2)nc(OC)n1` [Compound I-266] came in with a Ki of 36 nM. The inhibition in data set [2] is above 99.5%. Besides, the inhibition at 10 µM in data set [3] is at least 95%. Also, the “mutagenicity (FAT test)” value in data set [4] is given as “(−)”.
